One experiment addresses T1, CCR1 (Homo sapiens, UniProt P32246).
T1 construct: host or cells: THP-1 cells (or freshly isolated monocytes)
T1 sequence (P32246 1-355): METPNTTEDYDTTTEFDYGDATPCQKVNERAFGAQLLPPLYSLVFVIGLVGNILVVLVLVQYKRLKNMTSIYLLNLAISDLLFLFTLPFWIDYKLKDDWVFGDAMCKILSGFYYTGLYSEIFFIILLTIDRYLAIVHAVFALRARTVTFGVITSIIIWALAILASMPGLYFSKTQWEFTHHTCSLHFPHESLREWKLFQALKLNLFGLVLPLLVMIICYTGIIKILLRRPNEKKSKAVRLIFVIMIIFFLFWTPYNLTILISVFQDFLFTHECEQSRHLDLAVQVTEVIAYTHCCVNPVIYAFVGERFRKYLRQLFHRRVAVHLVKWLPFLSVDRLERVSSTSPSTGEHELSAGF
The experiment can be described thus: Chemotaxis assay (inhibition of CCR1 mediated migration). The experiment is classed as cell-based. Particulars: chemotaxis of THP-1 or monocyte cells toward CCR1 chemokine ligand (MIP-1α, CCL15/leukotactin); read-out: Avg Mig IC50. The method, then: THP-1 cells were obtained from ATCC (TIB-202) and cultured as a suspension in RPMI-1640 medium supplemented with 2 mM L-glutamine, 1.5 g/L sodium bicarbonate, 4.5 g/L glucose, 10 mM HEPES, 1 mM sodium pyruvate, 0.05% 2-mercaptoethanol and 10% FBS. Cells were grown under 5% CO2/95% air, 100% humidity at 37° C. and subcultured twice weekly at 1:5 (cells were cultured at a density range of 2×10^5 to 2×10^6 cells/mL) and harvested at 1×10^6 cells/mL. THP-1 cells express CCR1 and can be used in CCR1 binding and functional assays.
Chemotaxis assays were performed using 5 μm pore polycarbonate, polyvinylpyrrolidone-coated filters in 96-well chemotaxis chambers (Neuroprobe; Gaithersburg, Md.) using chemotaxis buffer (Hank's balanced salt solution (HBSS) and 1% FBS). CCR1 chemokine ligands (i.e., MIP-1α, CCL15/Leukotactin; R&D Systems; Minneapolis, Minn.) are use to evaluate compound mediated inhibition of CCR1 mediated migration. Other chemokines (i.e., SDF-1α; R&D Systems; Minneapolis, Minn.) are used as specificity controls. The lower chamber was loaded with 29 μl of chemokine (i.e., 0.1 nM CCL15/Leukotactin) and varying amounts of compound; the top chamber contained 100,000 THP-1 or monocyte cells in 20 μl. The chambers were incubated 1-2 hours at 37° C., and the number of cells in the lower chamber quantified either by direct cell counts in five high powered fields per well or by the CyQuant assay (Molecular Probes), a fluorescent dye method that measures nucleic acid content and microscopic observation.
One of the primary functions of chemokines is their ability to mediate the migration of chemokine receptor-expressing cells, such as white blood cells. To confirm that a compound of interest inhibited not only CCR1 specific binding and signaling (at least as determined by calcium mobilization assays), but also CCR1 mediated migration, a chemotaxis assay was employed. THP-1 myelomonocytic leukemia cells, which resemble monocytes, as wells as freshly isolated monocytes, were used as targets for chemoattraction by CCR1 chemokine ligands (i.e., MIP-1α, CCL15/leukotactin). Cells were placed in the top compartment of a microwell migration chamber, while MIP-1α (or other potent CCR1 chemokine ligand) and increasing concentrations of a compound of interest was loaded in the lower chamber. […] To ascertain a compound of interest's affinity for CCR1 as well as to confirm its ability to inhibit CCR1 mediated cell migration, inhibitory activity was titered over a 1×10^−10 to 1×10^−4 M range of compound concentrations in this chemotaxis assay. In this assay, the amount of compound was varied; while cell number and chemokine agonist concentrations were held constant. After the chemotaxis chambers were incubated 1-2 hours at 37° C., the responding cells in the lower chamber were quantified by labeling with the CyQuant assay (Molecular Probes), a fluorescent dye method that measures nucleic acid content, and by measuring with a Spectrafluor Plus (Tecan). The computer program Prism from GraphPad, Inc. (San Diego, Calif.) was used to calculate IC50 values. IC50 values are those compound concentrations required to inhibit the number of cells responding to a CCR1 agonist by 50%.

For a further experiment, the system named is CCR1 bearing neutrophils. Nature of the experiment: Murine model of inflammation (thioglycolate induced peritoneal inflammation). The format is in vivo. As to conditions: 3% thioglycolate into the peritoneum. How it is done:
Murine Model of Inflammation
A method of inducing peritoneal inflammation by the introduction of 3% thioglycolate into the peritoneum is well know in the art. Following the introduction of thioglycolate, a rapid influx of immune cells to the site, primarily CCR1 bearing neutrophils, results in local inflammation at 24 hours. A peritoneal exudate can be sampled, and the cell number and composition can be assessed to determine the anti-inflammatory properties of a compound of interest administered before, during or after the thioglycolate induction.

A value given as a limit tells only on which side of the number the result lay.

Take `CC(C)c1c(N2CCC(n3nc(-c4ncc[nH]4)c4cccnc43)C2=O)cnn1-c1ccc(F)cc1` (stereo not shown) [Compound 1.021]: the IC50 at CCR1 is 100 to 20000 nM.
On the same count and under the same terms, the figure for `Cc1c(Cl)c(C(F)(F)F)nn1C1CCN(c2cnn(-c3ccc(F)cc3)c2)C1=O` (stereo not shown) [Compound 1.040] is 100 to 20000 nM.
On the same count and under the same terms, the figure for `Cc1c(Cl)c(C(C)(C)O)nn1C1CCN(c2cnn(-c3ccc(F)cc3)c2C(C)C)C1=O` (stereo not shown) [Compound 1.018] is 100 to 20000 nM.
Same read-out and setting: next, `C/C=C(\C)c1c(N2CCC(n3nc(C(F)(F)F)c(Cl)c3C)C2=O)cnn1-c1ccc(F)cc1` (stereo not shown) [Compound 1.012]: 100 to 20000 nM; `Cc1c(Cl)c(C(F)(F)F)nn1C1CCN(c2cnn(-c3ccc(Cl)cc3)c2C(C)C)C1=O` (stereo not shown) [Compound 1.011]: no more than 100 nM.
As to `COc1cc(-n2ncc(N3CC[C@H](n4cc(C(F)(F)F)nc4C)C3=O)c2C(C)C)ccc1Cl` [Compound 1.041], on CCR1, the IC50 is 100 to 20000 nM.
The same measure, in the same setting: the figure for `Cc1nn(C2CCN(c3cnn(-c4ccc(F)cc4)c3C(C)C)C2=O)c(C(C)(C)O)c1Cl` (stereo not shown) [Compound 1.017] is 100 to 20000 nM; for `Cc1cc(C(F)(F)F)nn1C1CCN(c2cnn(-c3ccc(F)cc3)c2C(C)C)C1=O` (stereo not shown) [Compound 1.022] it is no more than 100 nM; for `Cc1c(Cl)c(C(F)(F)F)nn1C1CCCN(c2cnn(-c3ccc(F)cc3)c2)C1=O` (stereo not shown) [Compound 1.037] it is 100 to 20000 nM.
Still for that read-out and setting: the figure for `Cc1nc(C(F)(F)F)cn1C1CCN(c2cnn(-c3ccc(Cl)cc3)c2C(C)C)C1=O` (stereo not shown) [Compound 1.008] is no more than 100 nM.
For `Cc1nc(C(F)(F)F)cn1[C@H]1CCN(c2nnn(-c3ccc(Cl)cc3)c2C(C)C)C1=O` [Compound 1.042], the IC50 on CCR1 was no more than 100 nM. Moreover, in the experiment on CCR1 bearing neutrophils, the “neutrophil number in peritoneal exudate” value is “dramatic decrease” and the “total cell number in peritoneal exudate” value is “dramatic decrease”.
Regarding `Cc1nc(C(F)(F)F)cn1C1CCN(c2cnn(-c3ccc(F)cc3)c2N(C)C)C1=O` (stereo not shown) [Compound 1.001], the IC50 at CCR1 was in the range of 100 to 20000 nM.
The same measure, in the same setting: next, `Cc1nc(C(F)(F)F)cn1C1CCCN(c2cnn(-c3ccc(F)cc3)c2C)C1=O` (stereo not shown) [Compound 1.036]: 100 to 20000 nM; `Cc1c(Cl)c(C(F)(F)F)nn1C1CCN(c2cnn(-c3cccc(F)c3)c2C2CC2)C1=O` (stereo not shown) [Compound 1.024]: 100 to 20000 nM; `Cc1c(N2CCCC(n3nc(C(F)(F)F)c(Cl)c3C)C2=O)cnn1-c1ccc(F)cc1` (stereo not shown) [Compound 1.030]: 100 to 20000 nM.
The same measure, in the same setting: next, `Cc1c(Cl)c(C(F)(F)F)nn1C1CCN(c2cnn(-c3ccc(F)cc3)c2C(C)(C)C)C1=O` (stereo not shown) [Compound 1.020]: 100 to 20000 nM; `CCCc1c(N2CCC(n3nc(C(F)(F)F)c(Cl)c3C)C2=O)cnn1-c1ccc(F)cc1` (stereo not shown) [Compound 1.007]: 100 to 20000 nM.
The same measure, in the same setting: next, `Cc1c(N2CCC(n3nc(C(F)(F)F)nc3C)C2=O)cnn1-c1ccc(F)cc1` (stereo not shown) [Compound 1.034]: 100 to 20000 nM; `Cc1nc(C(F)(F)F)cn1C1(C)CCN(c2cnn(-c3ccc(Cl)cc3)c2C(C)C)C1=O` (stereo not shown) [Compound 1.003]: 100 to 20000 nM.
In the case of `Cc1nc(C(F)(F)F)cn1[C@H]1CCN(c2cnn(-c3ccc(Cl)cc3)c2C(C)C)C1=O` [Compound 1.045], the IC50 on CCR1 was no more than 100 nM.
Same read-out and setting: the figure for `Cc1nc(C(F)(F)F)cn1C1CCN(c2cnn(-c3ccc(F)cc3)c2C)C1=O` (stereo not shown) [Compound 1.033] is 100 to 20000 nM; for `Cc1nc(C(F)(F)F)cn1C1CCCN(c2cnn(-c3ccc(F)cc3)c2C)C1=O` (stereo not shown) [Compound 1.031] it is 100 to 20000 nM.
Same read-out and setting: next, `Cc1nc(C(F)(F)F)cn1C1CCN(c2cnn(-c3ccc(F)cc3)c2C(C)C)C1=O` (stereo not shown) [Compound 1.025]: no more than 100 nM.
As to `Cc1c(Cl)c(C(F)(F)F)nn1C1CCN(c2cnn(-c3ccc(F)cc3)c2C(C)C)C1=O` (stereo not shown) [Compound 1.028], the IC50 on CCR1 is no more than 100 nM.
Still for that read-out and setting: the figure for `Cc1nc(C(F)(F)F)cn1C1CCN(c2cnn(-c3ccc(F)cc3)c2)C1=O` (stereo not shown) [Compound 1.039] is 100 to 20000 nM; for `Cc1c(Cl)c(-c2ncc[nH]2)nn1C1CCN(c2cnn(-c3ccc(F)cc3)c2C(C)C)C1=O` (stereo not shown) [Compound 1.015] it is 100 to 20000 nM.
Still for that read-out and setting: next, `Cc1c(Cl)c(C(F)(F)F)nn1C1CCN(c2cnn(-c3cccc(F)c3)c2I)C1=O` (stereo not shown) [Compound 1.023]: 100 to 20000 nM; `Cc1c(Cl)c(C(F)(F)F)nn1C1CCN(c2cnn(-c3cccc(F)c3)c2-c2ccoc2)C1=O` (stereo not shown) [Compound 1.027]: 100 to 20000 nM; `CCC(C)c1c(N2CCC(n3nc(C(F)(F)F)c(Cl)c3C)C2=O)cnn1-c1ccc(F)cc1` (stereo not shown) [Compound 1.010]: no more than 100 nM.
The same measure, in the same setting: next, `CC(C)c1c(N2CCC(n3nc(-c4ncc[nH]4)c4c(N)ncnc43)C2=O)cnn1-c1ccc(F)cc1` (stereo not shown) [Compound 1.014]: 100 to 20000 nM; `Cc1c(Cl)c(C(F)(F)F)nn1C1CCN(c2cnn(-c3ccc(F)cc3)c2C2CC2)C1=O` (stereo not shown) [Compound 1.006]: no more than 100 nM.
Regarding `Cc1nc(C(F)(F)F)cn1C1CCN(c2cnn(-c3ccc(Cl)cc3)c2C2CCC2)C1=O` (stereo not shown) [Compound 1.044], the IC50 at CCR1 was no more than 100 nM.
Same read-out and setting: next, `Cc1cc(C(F)(F)F)nn1C1CCN(c2cnn(-c3ccc(F)cc3)c2)C1=O` (stereo not shown) [Compound 1.038]: 100 to 20000 nM.
The same measure, in the same setting: the figure for `CCc1nc(C(F)(F)F)cn1C1CCN(c2cnn(-c3ccc(Cl)cc3)c2C(C)C)C1=O` (stereo not shown) [Compound 1.004] is no more than 100 nM; for `Cc1c(Cl)c(C(F)(F)F)nn1C1CC(C)N(c2cnn(-c3ccc(F)cc3)c2C(C)C)C1=O` (stereo not shown) [Compound 1.009] it is no more than 100 nM.
Still for that read-out and setting: the figure for `CCCc1c(N2CCC(n3nc(C(F)(F)F)c(Cl)c3C)C2=O)cnn1-c1cccc(F)c1` (stereo not shown) [Compound 1.019] is 100 to 20000 nM; for `Cc1c(N2CCC(n3nc(C(F)(F)F)c(Cl)c3C)C2=O)cnn1-c1ccc(F)cc1` (stereo not shown) [Compound 1.035] it is 100 to 20000 nM.
With `CC(C)c1c(N2CCC(n3ccc(C(F)(F)F)n3)C2=O)cnn1-c1ccc(F)cc1` (stereo not shown) [Compound 1.013], the IC50 at CCR1 was 100 to 20000 nM.
On the same count and under the same terms, the figure for `Cc1c(Cl)c(C(F)(F)F)nn1C1CCN(c2cnn(-c3ccc(F)cc3)c2-c2ccccc2)C1=O` (stereo not shown) [Compound 1.026] is 100 to 20000 nM.
As to `Cc1c(N2CCCCC(n3nc(C(F)(F)F)c(Cl)c3C)C2=O)cnn1-c1ccc(F)cc1` (stereo not shown) [Compound 1.029], the IC50 on CCR1 fell in the range of 100 to 20000 nM.
Same read-out and setting: next, `Cc1nc(C(F)(F)F)cn1C1CCN(c2cnn(-c3ccc(Cl)cc3)c2C(F)(F)F)C1=O` (stereo not shown) [Compound 1.043]: 100 to 20000 nM; `Cc1nc(C(F)(F)F)cn1C1CCN(c2cnn(-c3ccc(F)cc3)c2OC(C)C)C1=O` (stereo not shown) [Compound 1.002]: no more than 100 nM.
On to `CCc1c(N2CCC(n3nc(C(F)(F)F)c(Cl)c3C)C2=O)cnn1-c1ccc(F)cc1` (stereo not shown) [Compound 1.032], for which the IC50 on CCR1 was no more than 100 nM.
The same measure, in the same setting: the figure for `Cc1nc(C(F)(F)F)cn1C1CC(C)N(c2cnn(-c3ccc(F)cc3)c2C(C)C)C1=O` (stereo not shown) [Compound 1.005] is 100 to 20000 nM.

What is called IC50 is the concentration that gives 50% inhibition.

The record behind these values is patent US11759454B2, “Diazole lactams” (CHEMOCENTRYX, INC., priority 2012, dated 2023).
